Results taken from patent US20250019371A1, “SMALL-MOLECULAR INHIBITORS FOR THE BETA-CATENIN/ B-CELL LYMPHOMA 9 PROTEIN-PROTEIN INTERACTION” (H. LEE MOFFITT CANCER CENTER AND RESEARCH INSTITUTE, INC., priority 2021, published 2025).

How the values were obtained:
HCT116 = test: MTS cell viability assay, HCT116; type: cell-based; settings: Homo sapiens, HCT-116; 72 h, Wnt/β-catenin hyperactive, mean ± SD (n = 3)
Protocol: (§1) MTS Cell Growth Inhibition Experiments. Colorectal cancer cells (SW480 and HCT116) and triple negative breast cancer cells (MDA-MB-231 and MDA-MB-468) were seeded in 96-well plates at 5×10^3 cells/well in DMEM with 10% FCS, maintained overnight at 37° C., and incubated with the tested compounds at various concentrations. Human mammary epithelial cell MCF10A were seeded in 96-well plates at 1×10^4 cells/well in MEGM (CC-3150, Lonza) with 100 ng/mL cholera toxin, maintained overnight at 37° C., and incubated with the tested compounds at various concentrations. Cell viability was monitored after 72 h using a freshly prepared mixture of 1 part phenazine methosulfate (PMS, Sigma) solution (0.92 mg/mL) and 19 parts 3-(4,5-dimethylthiazol-2-yl)-5-(3-carboxymethoxyphenyl)-2-(4-sulfophenyl)-2H-tetrazolium (MTS, Promega) solution (2 mg/mL). Cells were incubated in 10 μL of this solution at 37° C. for 3 h, and A490 was measured. […] Experiments were performed in triplicate.

MDA-MB-231 = test: MTS cell viability assay, MDA-MB-231; type: cell-based; settings: Homo sapiens, 72 h, Wnt/β-catenin hyperactive, mean ± SD (n = 3)
Protocol: as §1

MCF10A = test: MTS cell viability assay, MCF10A; type: cell-based, human; settings: Homo sapiens, MCF-10A; 72 h, Wnt/β-catenin normal, mean ± SD (n = 3)
Protocol: as §1

[1] = tested on: Wnt/β-catenin hyperactive cancer cells; test: MTS cell viability assays, cell panel; type: cell-based; settings: SW480, HCT116, MDA-MB-231, MDA-MB-468; read-out: IC50s for viability of Wnt/β-catenin hyperactive cancer cells
Protocol: as §1

[2] = tested on: Wnt/β-catenin signaling (TOPFlash luciferase reporter); test: TOPFlash luciferase reporter assay in SW480 cells; type: cell-based; settings: Homo sapiens, 24 h
Protocol: The suppressing effect of the inhibitors on transactivation of Wnt/β-catenin signaling was evaluated by the TOPFlash/FOPFlash luciferase reporter assay. In the TOPFlash assay, the luciferase reporter has three wild-type Tcf4 binding sites, while in the FOPFlash assay Tcf4 binding sites were mutated. These tandem Tcf binding sites controls the expression ratio of the firefly luciferase in TOPFlash/FOPFlash assays. The renilla luciferase reporter construct (pCMV-RL) was used as the internal control to normalize luciferase reporter signals and eliminate any possible systematic errors. […] This selectivity trend is consistent with that from MTS cell viability assays. Therefore, further cell-based studies were focused on compound 30.
Cell Transfection and Luciferase Assay. FuGENE6 (E269A, Promega) 96 well plate format was used for the transfection of SW480 cells according to the manufacturer's instruction. SW480 cells were co-transfected with 60 ng the TOPFlash or FOPFlash firefly luciferase reporter gene and 40 ng renilla luciferase pCMV-RL normalization reporter gene. Cells were cultured in DMEM and 10% FBS at 37° C. for 24 h, and different concentrations of inhibitors or DMSO was added. After 24 h, the luciferase reporter activity was measured using the Dual-Glo system (E2940, Promega). […]

[3] = tested on: Axin2, cyclin D1 and LEF1 mRNA; test: qPCR of Wnt target genes in Wnt 3a-activated MDA-MB-231 cells; type: cell-based, human; settings: 24 h, HPRT spared
Protocol: (§2) Quantitative Real Time PCR analysis. SW480 cells at 1×10^6 cells/mL were treated with inhibitors at different concentrations for 24 h. MDA-MB-231 cells at 1×10^6 cells/mL were treated with 100 ng/mL recombinant Wnt 3a (rmW3aL-010, Time BioScience) for 30 min, then the inhibitors at different concentration were added and incubated for 24 h. Total RNAs were extracted with TRIzol (15596026, Life Technologies), and the cDNA was synthesized with the superscript III first-strand kit (18080-051, Invitrogen). qPCR experiments were performed using the iQTM SYBR green supermix kit (170-8880, BIO-RAD) on an CFX96 Real Time System (BIO-RAD). The threshold cycle (CT) values were normalized to that of internal reference GAPDH. Experiments were performed in triplicate. The primer pairs are shown below

[4] = tested on: Axin2, cyclin D1 and LEF1 mRNA; test: qPCR of Wnt target genes in SW480 cells; type: cell-based, human; settings: 24 h, HPRT spared
Protocol: as §2

β-catenin/BCL9 PPI = test: Co-immunoprecipitation in HCT116 cells, β-catenin/BCL9; type: cell-based; settings: 24 h, full-length proteins
Protocol: (§3) C0-Immunoprecipitation (C0-IP) Experiments. HCT116 cancer cells with hyperactive 8-catenin signaling at 1×10^6 cells/mL were treated with different concentrations of the inhibitor for 24 h. Cells were then lysed in buffer containing 50 mM Tris, pH 7.4, 150 mM NaCl, 1% Nonidet P-40, 2 mM EDTA, and protease inhibitors. The cell lysates were pre-adsorbed to A/G plus agarose (sc-2003, Santa Cruz Biotechnology) at 4° C. for 1 h. Pre-adsorbed lysates were incubated with a specific primary antibody against β-catenin (610153, BD Biosciences) overnight at 4° C. A/G plus agarose was then added to the lysate mixture and incubated for 3 h. The beads were washed four times with the lysis buffer at 4° C. The bound protein was eluted by boiling in the SDS sample buffer and loaded onto 8% SDS polyacrylamide gel for electrophoretic analysis. Separated proteins were transferred onto nitrocellulose membranes for immunoblot analysis. The antibodies against BCL9 (ab37305, Abcam) and E-cadherin (610404, BD Biosciences), were incubated with the membranes, respectively. IRDye 680LT goat anti mouse IgG (827-11080, LiCOR) and IRDye 800CW goat anti rabbit IgG (926-32211, LiCOR) were used as the secondary antibodies. The images were detected by the Odyssey Infrared Imaging System (LiCOR). Experiments were performed in triplicate.

β-catenin/E-cadherin PPI = test: Co-immunoprecipitation in HCT116 cells, β-catenin/E-cadherin; type: cell-based; settings: concentrations sufficient to disrupt β-catenin/BCL9
Protocol: as §3

## CC(C)(Oc1cccc(N2CCC[C@H](C(=O)N(Cc3ccc(-c4cccs4)cc3)C3CC3)C2)c1)C(=O)NS(=O)(=O)c1ccc(C#N)cc1 [Compound 30, (S)-((4-Cyanophenyl)sulfonyl) (2-(3-(3-(cyclopropyl(4-(thiophen-2-yl)benzyl)carbamoyl)piperidin-1-yl)phenoxy)-2-methylpropanoyl)amide]
HCT116
  IC50: 29.6 ± 1.02 µM
MDA-MB-231
  IC50: 14.3 ± 0.57 µM
MCF10A
  IC50: 139 ± 3.16 µM
[1]
  IC50: 14 to 30 µM
[2]
  IC50: 6.6 µM
[3]
  transcription of Wnt target genes Axin2, cyclin D1, LEF1 (qPCR): dose-dependently inhibited transcription of these Wnt target genes
[4]
  transcription of Wnt target genes Axin2, cyclin D1, LEF1 (qPCR): dose-dependently inhibited transcription of these Wnt target genes
β-catenin/BCL9 PPI
  disruption of β-catenin/BCL9 PPI in cells (co-IP): disrupted the β-catenin/BCL9 PPI in a dose-dependent manner
β-catenin/E-cadherin PPI
  effect on β-catenin/E-cadherin PPI in cells (co-IP): did not affect the β-catenin/E-cadherin PPI
